Source: patent publication US12060347B2 (BRISTOL-MYERS SQUIBB COMPANY, priority 2016, dated 2024)

Molecular target: T1, human PAR4 (Homo sapiens, UniProt Q96RI0)
T1 construct: expressed in transfected cells; host or cells: HEK293 PAR4 Clone 1.2A (BMS Arctic ID 383940)
T1 sequence (Q96RI0 18-385): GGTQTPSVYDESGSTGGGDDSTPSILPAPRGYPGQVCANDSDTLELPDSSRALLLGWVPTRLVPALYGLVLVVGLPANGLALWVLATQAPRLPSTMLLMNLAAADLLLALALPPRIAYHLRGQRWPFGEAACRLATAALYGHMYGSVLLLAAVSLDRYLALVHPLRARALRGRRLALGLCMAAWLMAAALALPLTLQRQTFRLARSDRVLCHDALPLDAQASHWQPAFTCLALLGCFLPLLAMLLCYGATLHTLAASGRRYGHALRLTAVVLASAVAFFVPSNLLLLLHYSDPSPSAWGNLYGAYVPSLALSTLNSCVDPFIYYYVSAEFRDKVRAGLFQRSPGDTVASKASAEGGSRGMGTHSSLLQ
Assay: PAR4 FLIPR assay: antagonism of agonist-peptide-induced calcium mobilization in PAR4-expressing HEK293 cells
Assay type: cell-based
Conditions: H-Ala-Phe(4-F)-[…]NH2-induced intracellular calcium mobilization, 11-point curves

IC50 [nM] | SMILES
3.2 | COc1cnc2c(-c3nc4c(C)c(F)c(OCCOC(=O)Nc5ccc(F)nc5)cc4s3)cc(C)cc2n1 [Example 302, 2-((5-fluoro-2-(2-methoxy-7-methylquinoxalin-5-yl)-4-methylbenzo[d]thiazol-6-yl)oxy)ethyl (6-fluoropyridin-3-yl)carbamate]
0.9 | COCc1cnc2c(-c3nc4c(C)c(F)c(OCCOC(=O)Nc5ccc(F)nc5)cc4s3)cc(C)cc2n1 [Example 303, 2-((5-fluoro-2-(2-(methoxymethyl)-7-methylquinoxalin-5-yl)-4-methylbenzo[d]thiazol-6-yl)oxy)ethyl (6-fluoropyridin-3-yl) carbamate]
2.3 | COc1cnc2c(-c3nc4c(Cl)c(F)c(OCCOC(=O)Nc5ccc(F)nc5)cc4s3)cc(C)cc2n1 [Example 304, 2-((4-chloro-5-fluoro-2-(2-methoxy-7-methylquinoxalin-5-yl)benzo[d]thiazol-6-yl)oxy)ethyl (6-fluoropyridin-3-yl)carbamate]
1 | COCc1cnc2c(-c3nc4c(Cl)c(F)c(OCCOC(=O)Nc5ccc(F)nc5)cc4s3)cc(C)cc2n1 [Example 305, 2-((4-chloro-5-fluoro-2-(2-(methoxymethyl)-7-methylquinoxalin-5-yl)benzo[d]thiazol-6-yl)oxy)ethyl (6-fluoropyridin-3-yl)carbamate]
1 | CCOc1cc(C)c2nc(-c3cc(C)cc4nc(COC)cnc34)sc2c1 [Example 306]
0.9 | COCc1cnc2c(-c3nc4c(C)cc(OCc5ccccc5)cc4s3)cc(C)cc2n1 [Example 307, 6-(benzyloxy)-2-(2-(methoxymethyl)-7-methylquinoxalin-5-yl)-4-methylbenzo[d]thiazole]
3.6 | COCc1cnc2c(-c3nc4ccc(CO)cc4s3)cc(C)cc2n1 [Example 308, (2-(2-(methoxymethyl)-7-methylquinoxalin-5-yl)benzo[d]thiazol-6-yl)methanol]
3.3 | COCc1ccc2nc(-c3cc(C)cc4nc(COC)cnc34)sc2c1 [Example 309, 6-(methoxymethyl)-2-(2-(methoxymethyl)-7-methylquinoxalin-5-yl)benzo[d]thiazole]
9.1 | COCc1cnc2c(-c3nc4cc(O)c(OC)cc4s3)cc(C)cc2n1 [Example 310, 6-methoxy-2-(2-(methoxymethyl)-7-methylquinoxalin-5-yl)benzo[d]thiazol-5-ol]
93 | COCc1cnc2c(-c3nc4cc(OC)c(OC)cc4s3)cc(C)cc2n1 [Example 311, 5,6-dimethoxy-2-(2-(methoxymethyl)-7-methylquinoxalin-5-yl)benzo[d]thiazole]
6.7 | COCc1cnc2c(-c3nc4cc(CO)c(OC)cc4s3)cc(C)cc2n1 [Example 312, (6-methoxy-2-(2-(methoxymethyl)-7-methylquinoxalin-5-yl)benzo[d]thiazol-5-yl) methanol]
2.9 | COCc1cnc2c(-c3nc4c(OC)c(F)c(Cl)cc4s3)cc(C)cc2n1 [Example 313, 6-chloro-5-fluoro-4-methoxy-2-(2-(methoxymethyl)-7-methylquinoxalin-5-yl) benzo[d]thiazole]
10 | COCc1cnc2c(-c3nc4c(C5CC5)c(F)c(OC)cc4s3)cc(C)cc2n1 [Example 314, 4-cyclopropyl-5-fluoro-6-methoxy-2-(2-(methoxymethyl)-7-methylquinoxalin-5-yl)benzo[d]thiazole]
3.3 | CCOc1cc2sc(-c3cc(C)cc4nc(OC)cnc34)nc2c(F)c1F [Example 315, 6-ethoxy-4,5-difluoro-2-(2-methoxy-7-methylquinoxalin-5-yl)benzo[d]thiazole]
4.9 | COc1cnc2c(-c3nc4c(F)c(F)c(OCCNS(=O)(=O)c5cccc(F)c5)cc4s3)cc(C)cc2n1 [Example 316, N-(2-((4,5-difluoro-2-(2-methoxy-7-methylquinoxalin-5-yl)benzo[d]thiazol-6-yl)oxy)ethyl)-3-fluorobenzenesulfonamide]
4.5 | COCc1cnc2c(-c3nc4c(F)c(F)c(OCCNS(=O)(=O)c5cccc(F)c5)cc4s3)cc(C)cc2n1 [Example 317, N-(2-((4,5-difluoro-2-(2-(methoxymethyl)-7-methylquinoxalin-5-yl)benzo[d]thiazol-6-yl)oxy)ethyl)-3-fluorobenzenesulfonamide]
7.8 | COc1cnc2c(-c3nc4c(Cl)c(F)c(OCCO)cc4s3)cc(C)cc2n1 [Example 318, 2-((4-chloro-5-fluoro-2-(2-methoxy-7-methylquinoxalin-5-yl)benzo[d]thiazol-6-yl)oxy)ethanol]
7.3 | COCc1cnc2c(-c3nc4c(C)c(C)c(OCC(C)(C)O)cc4s3)cc(C)cc2n1 [Example 319, 1-((2-(2-(methoxymethyl)-7-methylquinoxalin-5-yl)-4,5-dimethylbenzo[d]thiazol-6-yl)oxy)-2-methylpropan-2-ol]
3.4 | COCc1cnc2c(-c3nc4c(C)c(C)c(OCCOC(=O)OC)cc4s3)cc(C)cc2n1 [Example 320, 2-((2-(2-(methoxymethyl)-7-methylquinoxalin-5-yl)-4,5-dimethylbenzo[d]thiazol-6-yl)oxy)ethyl methyl carbonate]
42 | COc1cnc2c(-c3nc4c(Cl)c(F)c(OCC(=O)N5CCOCC5)cc4s3)cc(C)cc2n1 [Example 324, 2-((4-chloro-5-fluoro-2-(2-methoxy-7-methylquinoxalin-5-yl)benzo[d]thiazol-6-yl)oxy)-1-morpholinoethanone]
0.7 | [2H]C([2H])(O)c1c(C)c(OC)cc2sc(-c3cc(C)cc4nc(COC)cnc34)nc12 [Example 325]
1.1 | COCc1cnc2c(-c3nc4c(C(C)O)c(C)c(OC)cc4s3)cc(C)cc2n1 (stereo not drawn) [Example 326, 1-(6-methoxy-2-(2-(methoxymethyl)-7-methylquinoxalin-5-yl)-5-methylbenzo[d]thiazol-4-yl)ethanol]
5.2 | COCc1cnc2c(-c3nc4c(Cl)c(C)c(OCCO)cc4s3)cc(C)cc2n1 [Example 327, 2-((4-chloro-2-(2-(methoxymethyl)-7-methylquinoxalin-5-yl)-5-methylbenzo[d]thiazol-6-yl)oxy)ethanol]
1.1 | COCc1cnc2c(-c3nc4cc(F)c(OC(C)C)cc4s3)cc(C)cc2n1 [Example 329, 5-fluoro-6-isopropoxy-2-(2-(methoxymethyl)-7-methylquinoxalin-5-yl)benzo[d]thiazole]
57 | COc1cnc2c(-c3nc4c(Cl)c(F)c(OCCNS(=O)(=O)c5ccccc5)cc4s3)cc(C)cc2n1 [Example 330, N-(2-((4-chloro-5-fluoro-2-(2-methoxy-7-methylquinoxalin-5-yl)benzo[d]thiazol-6-yl)oxy)ethyl)benzenesulfonamide]
9.2 | COc1cnc2c(-c3nc4c(Cl)c(F)c(OCCOC(=O)Nc5cccnc5)cc4s3)cc(C)cc2n1 [Example 331, 2-((4-chloro-5-fluoro-2-(2-methoxy-7-methylquinoxalin-5-yl)benzo[d]thiazol-6-yl)oxy)ethyl pyridin-3-ylcarbamate]
2.4 | COc1ccc(NC(=O)OCCOc2cc3sc(-c4cc(C)cc5nc(OC)cnc45)nc3c(Cl)c2F)cn1 [Example 332, 2((4-chloro-5-fluoro-2-(2-methoxy-7-methylquinoxalin-5-yl)benzo[d]thiazol-6-yl)oxy)ethyl (6-methoxypyridin-3-yl)carbamate]
